Assay [1] addresses S. aureus 133 Translation. Kind of assay: S. aureus in vitro transcription-translation assay (firefly luciferase, S30 extract). The format is biochemical. The source says:
In order to construct a reporter plasmid which can be used in an in vitro transcription -translation assay from S. aureus the plasmid pBESTluc (Promega Corporation, USA) is used. The E. coli tac promoter present in this plasmid in front of the firefly luciferase is replaced by the capA1 promoter with appropriate Shine-Dalgarno sequence from S. aureus. The primers CAPFor 5′-[…] -[…]-3′ and CAPRev 5′-[…]-3′ are used for this. The primer CAPFor contains the capA1 promoter, the ribosome binding site and the 5′ region of the luciferase gene. After PCR using pBESTluc as template it is possible to isolate a PCR product which contains the firefly luciferase gene with the fused capA1 promoter. This is, after restriction with ClaI and HindIII, ligated into the vector pBESTluc which has likewise been digested with ClaI and HindIII. The resulting plasmid pla can be replicated in E. coli and be used as template in the S. aureus in vitro transcription-translation assay.
Six liters of BHI medium are inoculated with a 250 ml overnight culture of a S. aureus strain and allowed to grow at 37° C. until the OD600 nm is 2-4. The cells are harvested by centrifugation and washed in 500 ml of cold buffer A (10 mM Tris acetate, pH 8.0, 14 mM magnesium acetate, 1 mM DTT, 1 M KCl). After renewed centrifugation, the cells are washed in 250 ml of cold buffer A with 50 mM KCl, and the resulting pellets are frozen at −20° C. for 60 min. The pellets are thawed on ice in 30 to 60 min and taken up to a total volume of 99 ml in buffer B (10 mM Tris acetate, pH 8.0, 20 mM magnesium acetate, 1 mM DTT, 50 mM KCl). 1.5 ml lysostaphin (0.8 mg/ml) in buffer B are introduced into 3 precooled centrifuge cups each and each mixed with 33 ml of the cell suspension. The samples are incubated at 37° C., shaking occasionally, for 45 to 60 min, before 150 μl of a 0.5 M DTT solution are added. The lysed cells are centrifuged at 30 000×g and 4° C. for 30 min. The cell pellet is taken up in buffer B and then centrifuged again under the same conditions, and the collected supernatants are combined. The supernatants are centrifuged again under the same conditions, and 0.25 volumes of buffer C (670 mM Tris acetate, pH 8.0, 20 mM magnesium acetate, 7 mM Na3 phosphoenolpyruvate, 7 mM DTT, 5.5 mM ATP, 70 μM amino acids (complete from Promega), 75 μg of pyruvate kinase (Sigma, Germany)/ml are added to the upper ⅔ of the supernatant. The samples are incubated at 37° C. for 30 min. The supernatants are dialysed against 21 of dialysis buffer (10 mM Tris acetate, pH 8.0, 14 mM magnesium acetate, 1 mM DTT, 60 mM potassium acetate) in a dialysis tube with a 3500 Da cut-off with one buffer change at 4° C. overnight. The dialysate is concentrated to a protein concentration of about 10 mg/ml by covering the dialysis tube with cold PEG 8000 powder (Sigma, Germany) at 4° C. The S30 extracts can be stored in aliquots at −70° C.
Inhibition of protein biosynthesis of the compounds can be shown in an in vitro transcription-translation assay. The assay is based on the cell-free transcription and translation of firefly luciferase using the reporter plasmid pla as template and cell-free S30 extracts obtained from S. aureus. The activity of the resulting luciferase can be detected by luminescence measurement.
The amount of S30 extract or plasmid plato be employed must be tested anew for each preparation in order to ensure an optimal concentration in the assay. 3 μl of the substance to be tested, dissolved in 5% DMSO, are introduced into an MTP. Then 10 μl of a suitably concentrated plasmid solution p1 a are added. Then 46 μl of a mixture of 23 μl of premix (500 mM Potassium acetate, 87.5 mM Tris acetate, pH 8.0, 67.5 mM ammonium acetate, 5 mM DTT, 50 μg of folic acid/ml, 87.5 mg of PEG 8000/ml, 5 mM ATP, 1.25 mM each NTP, 20 μM each amino acid, 50 mM PEP (Na3 salt), 2.5 mM cAMP, 250 μg each E. coli tRNA/ml) and 23 μl of a suitable amount of S. aureus S30 extract are added and mixed. […]

The next assay has as its system S. aureus 133. Kind of assay: MIC, alternative method, agar dilution test. The format is cell-based. The settings on record: agar dilution, 1.5% agar with 20% defibrinated horse blood, 5% CO2, 18-24 h; for MIC: Staphylococcus aureus, 133, read-out: MIC S. aureus 133. The protocol:
(§1) The minimum inhibitory concentration (MIC) is the minimum concentration of an antibiotic with which the growth of a test microbe is inhibited over 18-24 h. The inhibitor concentration can be determined by standard microbiological methods using modified medium in an agar dilution test (see, for example, the National Committee for Clinical Laboratory Standards. Methods for dilution antimicrobial susceptibility tests for bacteria that grow aerobically; approved standard-fifth edition. NCCLS document M7-A5 [ISBN 1-56238-394-9]. NCCLS, 940 West Valley Road, Suite 1400, Wayne, PA. 19087-1898 USA, 2000). The bacterial microbes are cultivated on 1.5% agar plates containing 20% defibrinated horse blood. The test microbes, which are incubated on Columbia blood agar plates (Becton-Dickinson) overnight, are diluted in PBS, adjusted to a microbe count of about 5×10^5 microbes/ml and placed as drops (1-3 μl) on test plates. The test substances contain various dilutions of the test substances (1:2 dilution stages). The cultures are incubated at 37° C. in the presence of 5% CO2 for 18-24 hours.
(§2) The lowest concentration of each substance at which no visible bacterial growth occurs is defined as the MIC and is reported in μg/ml.
A general note: In agar dilution, organisms are placed on agar that contains the substance at set levels.

Another assay deals with S. aureus T17. Kind of assay: MIC, alternative method, agar dilution test. The assay is classed as cell-based. As to conditions: agar dilution, 1.5% agar with 20% defibrinated horse blood, 5% CO2, 18-24 h; for MIC: Staphylococcus aureus, T17, read-out: MIC S. aureus T17. The procedure: as §1, §2

A word on the IC50: it is the concentration needed to halve the response being measured. Read a high IC50 as weaker potency. The term MIC denotes the lowest concentration found to suppress growth.

≈ marks a conversion by molar mass, not a printed value.

Take `NCCNC(=O)[C@@H]1Cc2cc(ccc2F)-c2ccc(O)c(c2)C[C@H](N)C(=O)N[C@@H](C[C@@H](O)CN)C(=O)N1` [Example 12]: the IC50 in assay [1] (Table A) and in assay [1] (Table B) was 800 nM throughout. For the same compound, the MIC in the assay with S. aureus 133 and with S. aureus T17 was 1 µg/mL (≈ 1.94 µM) each time.

In the case of `NC[C@H](O)C[C@@H]1NC(=O)[C@@H](N)Cc2cc(ccc2O)-c2ccc(O)c(c2)C[C@@H](C(=O)O)NC1=O` [Biphenomycin B, biphenomycin B, reference compound], the IC50 in assay [1] (Table A) and in assay [1] (Table B) was 1500 nM throughout. Also, the “MIC S. aureus 133” value in the assay with S. aureus 133 is <0.03 µg/mL. The “MIC S. aureus T17” value in the assay on S. aureus T17 was >32 µg/mL.

As for `NCCNC(=O)[C@@H]1Cc2cccc(c2)-c2ccc(O)c(c2)C[C@H](N)C(=O)N[C@@H](C[C@@H](O)CN)C(=O)N1` [Example 36, (8S,11S,14S)-14-Amino-N-(2-aminoethyl)-11-[(2R) -3-amino-2-hydroxypropyl]-17-hydroxy-10,13-dioxo-9,12-diazatricyclo-[14.3.1.1^2,6]henicosa-1(20),2(21),3,5,16,18-hexaene-8-carboxamide tri(hydrotrifluoroacetate)], the IC50 in assay [1] (Table A) and in assay [1] (Table B) was 360 nM throughout. In addition, the MIC in the assay on S. aureus 133 was found to be 1 µg/mL (≈ 2.01 µM); with S. aureus T17, 2 µg/mL (≈ 4.01 µM).

As to `CN1C(=O)[C@H](C[C@@H](O)CN)NC(=O)[C@@H](N)Cc2cc(ccc2O)-c2ccc(Cl)c(c2)C[C@H]1C(=O)NCC(O)CN` (stereo partly shown) [Example 9], the IC50 in assay [1] (Table A) and in assay [1] (Table B) was 300 nM each time. Moreover, the values for the MIC with S. aureus 133 and in the assay with S. aureus T17 were 2 µg/mL (≈ 3.47 µM) and 4 µg/mL (≈ 6.93 µM), respectively.

The values above are taken from patent US7655643B2, “Antibacterial macrocycles with substituted biphenyl” (AiCuris GmbH & Co. KG, priority 2003, dated 2010).
